Data from US11970498B2, “CDK2 inhibitors” (BLUEPRINT MEDICINES CORPORATION, priority 2021, dated 2024).
pIC50: −log10 of the molar value.

Tests used:
CDK2/Cyclin E = CDK2/Cyclin E (Homo sapiens, UniProt P24941); experiment: CDK2/Cyclin E biochemical phosphorylation assay (Caliper mobility shift); conditions: apparent IC50; 1.0 mM ATP or ATP Km; 1.25 nM enzyme; 25° C.; read-out: CDK2/cyclin E1 IC50
How it was run: (§1)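 Caliper electrophoretic separation of substrate and phosphopeptide gave apparent IC50s. Enzymes: CDK1/Cyclin B1 GST-tag 1.5 nM, CDK2/Cyclin E 1.25 nM; ATP 1.0 mM or at Km; 7.5 µM FL-peptide; pH 7.5 HEPES buffer, 1% DMSO; room temperature until 10–20% phosphorylated, then EDTA quench.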

CDK1/Cyclin B1, GST-tag = target: T1, CDK1/Cyclin B1, GST-tag (Homo sapiens, UniProt P06493); experiment: CDK1/Cyclin B1 biochemical phosphorylation assay (Caliper mobility shift); conditions: apparent IC50; 1.0 mM ATP or ATP Km; 1.5 nM enzyme; 25° C.
T1 construct: GST
How it was run: as §1

T1 sequence (P06493 whole entry): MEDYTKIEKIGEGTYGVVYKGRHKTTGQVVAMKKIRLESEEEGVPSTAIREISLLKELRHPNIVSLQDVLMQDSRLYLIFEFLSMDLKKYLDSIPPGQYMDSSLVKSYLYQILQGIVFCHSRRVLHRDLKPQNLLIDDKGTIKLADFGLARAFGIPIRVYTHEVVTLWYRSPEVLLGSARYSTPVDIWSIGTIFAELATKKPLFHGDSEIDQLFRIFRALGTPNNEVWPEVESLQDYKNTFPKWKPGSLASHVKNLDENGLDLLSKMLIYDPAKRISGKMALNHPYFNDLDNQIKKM
T1 sequence (P14635 whole entry partner): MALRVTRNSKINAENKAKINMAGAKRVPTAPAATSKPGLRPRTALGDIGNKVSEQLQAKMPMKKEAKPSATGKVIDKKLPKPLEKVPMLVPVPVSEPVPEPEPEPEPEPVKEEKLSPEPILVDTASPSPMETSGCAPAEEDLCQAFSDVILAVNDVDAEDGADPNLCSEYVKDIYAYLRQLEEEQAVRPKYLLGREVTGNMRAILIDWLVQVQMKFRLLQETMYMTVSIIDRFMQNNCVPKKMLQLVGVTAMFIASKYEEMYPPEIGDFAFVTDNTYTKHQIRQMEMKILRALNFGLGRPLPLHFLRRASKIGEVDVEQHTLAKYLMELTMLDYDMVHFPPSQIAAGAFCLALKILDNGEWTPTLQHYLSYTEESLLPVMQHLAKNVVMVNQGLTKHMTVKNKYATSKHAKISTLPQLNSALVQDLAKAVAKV

Row | pIC50 (CDK2/Cyclin E) | pIC50 (CDK1/Cyclin B1, GST-tag) | SMILES
1 | < 7.00 | ≤ 6.30 | O[C@H]1CC[C@@H](n2ncc3ncc(Nc4cc(OC(F)F)[nH]n4)nc32)C1 (single isomer, unassigned) [Example 209]
2 | < 7.00 | ≤ 6.30 | O[C@H]1CC[C@@H](n2ncc3ncc(Nc4cc(OC(F)F)[nH]n4)nc32)C1 (single isomer, unassigned) [Example 210]
3 | 7.00 to 7.52 | ≤ 6.30 | C[C@@H]([C@@H]1COCCO1)n1ncc2ncc(Nc3cc(OC(F)F)[nH]n3)nc21 (single isomer, unassigned) [Example 211]
4 | < 7.00 | ≤ 6.30 | C[C@@H]([C@@H]1COCCO1)n1ncc2ncc(Nc3cc(OC(F)F)[nH]n3)nc21 (single isomer, unassigned) [Example 212]
5 | 7.70 to 8.00 | ≤ 6.30 | C[C@@H]([C@@H]1COCCO1)n1ncc2ncc(Nc3cc(OC(F)F)[nH]n3)nc21 (single isomer, unassigned) [Example 213]
6 | 7.70 to 8.00 | ≤ 6.30 | C[C@@H]([C@@H]1COCCO1)n1ncc2ncc(Nc3cc(OC(F)F)[nH]n3)nc21 (single isomer, unassigned) [Example 214]
7 | ≥ 8.00 | > 7.00 | C[C@@H]([C@H]1CCCOC1)n1ncc2ncc(Nc3cc(OC(F)F)[nH]n3)nc21 (single isomer, unassigned) [Example 215]
8 | 7.70 to 8.00 | ≤ 6.30 | C[C@@H]([C@H]1CCCOC1)n1ncc2ncc(Nc3cc(OC(F)F)[nH]n3)nc21 (single isomer, unassigned) [Example 216]
9 | 7.00 to 7.52 | ≤ 6.30 | C[C@@H]([C@H]1CCCOC1)n1ncc2ncc(Nc3cc(OC(F)F)[nH]n3)nc21 (single isomer, unassigned) [Example 217]
10 | ≥ 8.00 | > 7.00 | CC(C1CCCOC1)n1ncc2ncc(Nc3cc(OC(F)F)[nH]n3)nc21 (single isomer, unassigned) [Example 218]
11 | ≥ 8.00 | 6.30 to 7.00 | C[C@@H](c1cccnc1)n1ncc2ncc(Nc3cc(OC(F)F)[nH]n3)nc21 [Example 1, (S)—N-(5-(difluoromethoxy)-1H-pyrazol-3-yl)-1-(1-(pyridin-3-yl)ethyl)-1H-pyrazolo[3,4-b]pyrazin-6-amine]
12 | ≥ 8.00 | 6.30 to 7.00 | FC(F)Oc1cc(Nc2cnc3cnn(CC4CCOCC4)c3n2)n[nH]1 [Example 2, N-(5-(difluoromethoxy)-1H-pyrazol-3-yl)-1-((tetrahydro-2H-pyran-4-yl)methyl)-1H-pyrazolo[3,4-b]pyrazin-6-amine]
13 | ≥ 8.00 | 6.30 to 7.00 | O[C@H]1CC[C@H](n2ncc3ncc(Nc4cc(OC(F)F)[nH]n4)nc32)CC1 [Example 3, (1r,4r)-4-(6-((5-(difluoromethoxy)-1H-pyrazol-3-yl)amino)-1H-pyrazolo[3,4-b]pyrazin-1-yl)cyclohexan-1-ol]
14 | ≥ 8.00 | ≤ 6.30 | C[C@@H](c1ccccn1)n1ncc2ncc(Nc3cc(OC(F)F)[nH]n3)nc21 [Example 4, (S)—N-(5-(difluoromethoxy)-1H-pyrazol-3-yl)-1-(1-(pyridin-2-yl)ethyl)-1H-pyrazolo[3,4-b]pyrazin-6-amine]
15 | ≥ 8.00 | 6.30 to 7.00 | Fc1ncccc1Cn1ncc2ncc(Nc3cc(OC(F)F)[nH]n3)nc21 [Example 7, N-(5-(difluoromethoxy)-1H-pyrazol-3-yl)-1-((2-fluoropyridin-3-yl)methyl)-1H-pyrazolo[3,4-b]pyrazin-6-amine]
16 | ≥ 8.00 | > 7.00 | C[C@@H](c1cccnc1F)n1ncc2ncc(Nc3cc(OC(F)F)[nH]n3)nc21 [Example 8, (S)—N-(5-(difluoromethoxy)-1H-pyrazol-3-yl)-1-(1-(2-fluoropyridin-3-yl)ethyl)-1H-pyrazolo[3,4-b]pyrazin-6-amine]
17 | ≥ 8.00 | 6.30 to 7.00 | C[C@@H](c1cccnc1F)n1nc(Cl)c2ncc(Nc3cc(OC(F)F)[nH]n3)nc21 [Example 17, (S)-3-chloro-N-(5-(difluoromethoxy)-1H-pyrazol-3-yl)-1-(1-(2-fluoropyridin-3-yl)ethyl)-1H-pyrazolo[3,4-b]pyrazin-6-amine]
18 | ≥ 8.00 | 6.30 to 7.00 | COc1cc(Nc2cnc3cnn([C@@H](C)C4CCOCC4)c3n2)n[nH]1 [Example 22, (S)—N-(5-methoxy-1H-pyrazol-3-yl)-1-(1-(tetrahydro-2H-pyran-4-yl)ethyl)-1H-pyrazolo[3,4-b]pyrazin-6-amine]

Row | pIC50 (CDK2/Cyclin E) | pIC50 (CDK1/Cyclin B1, GST-tag) | SMILES
19 | ≥ 8.00 | 6.30 to 7.00 | CC(C)(C1CC1)n1ncc2ncc(Nc3cc(OC(F)F)[nH]n3)nc21 [Example 23, 1-(2-cyclopropylpropan-2-yl)-N-(5-(difluoromethoxy)-1H-pyrazol-3-yl)-1H-pyrazolo[3,4-b]pyrazin-6-amine]
20 | 7.52 to 7.70 | ≤ 6.30 | OC[C@@H](C1CCOCC1)n1ncc2ncc(Nc3cc(OC(F)F)[nH]n3)nc21 [Example 30, (R)-2-(6-((5-(difluoromethoxy)-1H-pyrazol-3-yl)amino)-1H-pyrazolo[3,4-b]pyrazin-1-yl)-2-(tetrahydro-2H-pyran-4-yl)ethan-1-ol]
21 | 7.70 to 8.00 | ≤ 6.30 | C[C@H](C1CCOCC1)n1ncc2ncc(Nc3cc(OC(F)F)[nH]n3)nc21 [Example 34, (R)-N-(5-(difluoromethoxy)-1H-pyrazol-3-yl)-1-(1-(tetrahydro-2H-pyran-4-yl)ethyl)-1H-pyrazolo[3,4-b]pyrazin-6-amine]
22 | ≥ 8.00 | ≤ 6.30 | FC(F)Oc1cc(Nc2cnc3cnn(Cc4cccnc4)c3n2)n[nH]1 [Example 35, N-(5-(difluoromethoxy)-1H-pyrazol-3-yl)-1-(pyridin-3-ylmethyl)-1H-pyrazolo[3,4-b]pyrazin-6-amine]
23 | 7.52 to 7.70 | ≤ 6.30 | FC(F)Oc1cc(Nc2cnc3cnn(Cc4ccccc4)c3n2)n[nH]1 [Example 36, 1-benzyl-N-(5-(difluoromethoxy)-1H-pyrazol-3-yl)-1H-pyrazolo[3,4-b]pyrazin-6-amine]
24 | 7.52 to 7.70 | ≤ 6.30 | Fc1ccccc1Cn1ncc2ncc(Nc3cc(OC(F)F)[nH]n3)nc21 [Example 37, N-(5-(difluoromethoxy)-1H-pyrazol-3-yl)-1-(2-fluorobenzyl)-1H-pyrazolo[3,4-b]pyrazin-6-amine]
25 | ≥ 8.00 | 6.30 to 7.00 | CCOc1cc(Nc2cnc3cnn(CC4CCOCC4)c3n2)n[nH]1 [Example 38, N-(5-ethoxy-1H-pyrazol-3-yl)-1-((tetrahydro-2H-pyran-4-yl)methyl)-1H-pyrazolo[3,4-b]pyrazin-6-amine]
26 | 7.52 to 7.70 | ≤ 6.30 | Fc1cccc(Cn2ncc3ncc(Nc4cc(OC(F)F)[nH]n4)nc32)c1 [Example 39, N-(5-(difluoromethoxy)-1H-pyrazol-3-yl)-1-(3-fluorobenzyl)-1H-pyrazolo[3,4-b]pyrazin-6-amine]
27 | 7.70 to 8.00 | ≤ 6.30 | Fc1ccc(Cn2ncc3ncc(Nc4cc(OC(F)F)[nH]n4)nc32)cc1 [Example 40, N-(5-(difluoromethoxy)-1H-pyrazol-3-yl)-1-(4-fluorobenzyl)-1H-pyrazolo[3,4-b]pyrazin-6-amine]
28 | ≥ 8.00 | ≤ 6.30 | Fc1ccc(Cn2ncc3ncc(Nc4cc(OC(F)F)[nH]n4)nc32)cn1 [Example 41, N-(5-(difluoromethoxy)-1H-pyrazol-3-yl)-1-((6-fluoropyridin-3-yl)methyl)-1H-pyrazolo[3,4-b]pyrazin-6-amine]
29 | 7.52 to 7.70 | ≤ 6.30 | Fc1cncc(Cn2ncc3ncc(Nc4cc(OC(F)F)[nH]n4)nc32)c1 [Example 42, N-(5-(difluoromethoxy)-1H-pyrazol-3-yl)-1-((5-fluoropyridin-3-yl)methyl)-1H-pyrazolo[3,4-b]pyrazin-6-amine]
30 | ≥ 8.00 | ≤ 6.30 | C[C@@H](c1cccc(F)c1)n1ncc2ncc(Nc3cc(OC(F)F)[nH]n3)nc21 [Example 43, (S)-N-(5-(difluoromethoxy)-1H-pyrazol-3-yl)-1-(1-(3-fluorophenyl)ethyl)-1H-pyrazolo[3,4-b]pyrazin-6-amine]
31 | 7.70 to 8.00 | ≤ 6.30 | FC(F)Oc1cc(Nc2cnc3cnn(C4CCC(F)(F)CC4)c3n2)n[nH]1 [Example 44, 1-(4,4-difluorocyclohexyl)-N-(5-(difluoromethoxy)-1H-pyrazol-3-yl)-1H-pyrazolo[3,4-b]pyrazin-6-amine]
32 | ≥ 8.00 | ≤ 6.30 | COc1cc(Nc2cnc3cnn([C@@H](C)c4ccccn4)c3n2)n[nH]1 [Example 45, (S)-N-(5-methoxy-1H-pyrazol-3-yl)-1-(1-(pyridin-2-yl)ethyl)-1H-pyrazolo[3,4-b]pyrazin-6-amine]
33 | ≥ 8.00 | ≤ 6.30 | C[C@@H](c1ccccc1F)n1ncc2ncc(Nc3cc(OC(F)F)[nH]n3)nc21 [Example 46, (S)-N-(5-(difluoromethoxy)-1H-pyrazol-3-yl)-1-(1-(2-fluorophenyl)ethyl)-1H-pyrazolo[3,4-b]pyrazin-6-amine]
34 | ≥ 8.00 | ≤ 6.30 | C[C@@H](c1ccc(F)cc1)n1ncc2ncc(Nc3cc(OC(F)F)[nH]n3)nc21 [Example 47, (S)-N-(5-(difluoromethoxy)-1H-pyrazol-3-yl)-1-(1-(4-fluorophenyl)ethyl)-1H-pyrazolo[3,4-b]pyrazin-6-amine]
35 | ≥ 8.00 | ≤ 6.30 | C[C@@H](c1ccc(F)cn1)n1ncc2ncc(Nc3cc(OC(F)F)[nH]n3)nc21 [Example 48, (S)-N-(5-(difluoromethoxy)-1H-pyrazol-3-yl)-1-(1-(5-fluoropyridin-2-yl)ethyl)-1H-pyrazolo[3,4-b]pyrazin-6-amine]
